Test results from patent publication US9808456B2, “Piperazine thiazole derivatives useful in the treatment of tauopathies such as Alzheimer's disease” (REMYND NV, priority 2011, dated 2017).

Tests used:
[1] = Microsomal stability assay, human liver microsomes (intrinsic clearance); format: in vitro ADME; details: read-out: CLint. (Hum)
Method: (§1) Microsomal Stability Testing—Assay Description
(§2) The microsomal stability assay measures the rate of disappearance of a test compound from an incubation containing human or animal liver microsomes and metabolic cofactors (typically NADPH). The assay is primarily used for ranking the relative CYP-mediated metabolism propensities of compounds within a chemical series and as a guide to selecting sufficiently stable compounds for pharmacokinetics and pharmacodynamics experiments. [In addition to CYPs, microsomally located enzymes which also make use of NADPH (such as […]) and those which require no cofactors (such as carboxylesterases) are active.]
(§3) Incubations are performed in 96-well deep-well plates with a final incubation volume of 600 μL. Incubations contain (finally) 1-20 μM test compound, 0.5 mg/mL liver microsomes (typically human, rat or mouse) and NADPH regenerating system. 50 μL aliquots are removed after 1, 3, 6, 9, 15, 25, 35 and 45 minutes and quenched in 150 μL acetonitrile containing internal standard. Samples are then cooled and centrifuged before analysis by LC-MS/MS.
(§4) Log peak area ratio (test compound peak area/internal standard peak area) is plotted against incubation time and a linear fit made to the data with emphasis upon the initial rate of compound disappearance. […]

[2] = Microsomal stability assay, rat liver microsomes (intrinsic clearance); format: in vitro ADME
Method: as §1, §2, §3, §4

M17_3TAU(P301L) cells = assay: Neuroblastoma tauopathy model: inhibition of TAU-induced cytotoxicity (LDH) after retinoic acid differentiation; format: cell-based; details: Homo sapiens, 168 h, inhibition of TAU-induced toxicity, 7 days retinoic acid, LDH readout
From the text: A TAU expression plasmid was constructed by sub-cloning the cDNA encoding for human TAU-P301L protein, wherein proline at position 301 is substituted by a leucine residue, into mammalian expression vector pcDNA3.1 resulting in the plasmid pcDNA3.1-TAUP301L. Plasmids pcDNA3.1 and pcDNA3.1-TAU P301L were transfected into human neuroblastoma cells (BE-M17; ATCC No. CRL2267™) using lipofectamine reagent and subsequently, independent clonal cell lines with the plasmids stably integrated into the genome were selected by antibiotic resistance selection (Geneticin (G418)), resulting in cell lines M17.pcDNA3 and M17_3TAUP301L. Expression of the TAUP301L gene in the M17_3TAUP301L cells was confirmed by Western blot analysis.
Differentiation of the cells with RA leads to phosphorylation and subsequent aggregation of TAU, inducing a tauopathy in these cells. Cytotoxicity of cells was measured by quantification of lactate dehydrogenase (LDH) levels. In dead cells LDH is leaked out of the cells into the medium due to a loss of plasma-membrane integrity.
Briefly, 3 days preceeding the experiment pre-cultures of M17.pcDNA3 and M17_3TAU(P301L) cells were prepared, starting from a stock culture, at a density of 50.000-100.000 cells/cm2 in detection medium (Optimem Reduced Serum without phenol red (Gibco, Cat. 31985-047) supplemented with 1% fetal calf serum (FCS), 1 mM sodium pyruvate, 1× non-essential amino acids (NEAR), 500 μg/ml G418 and 0.5× antibiotic/antimycotic (ABAM)). At the day of the experiment these precultures were diluted to ˜0, 1.106 cells/ml in detection medium without FCS and 60 μL of this suspension is dispensed per well into a 96-well microtiter plate. After 3 hours of incubation at 37° C./5% CO2 an equal volume of detection medium containing 2.5 μM RA was added and subsequently incubated for 7 days at 37° C./5% CO2. After 7 days, LDH activity was determined using the Promega Cytotox 96 Non-Radioactive cytotoxicity assay (Cat. G1780), according the manufacturer's instructions. Cytotoxicity is measured as the ratio of LDH increase in the supernatant divided by the LDH increase in the total cell suspension (sum of the LDH measured in cells and supernatant).
The M17_3TAU(P301L) cell line makes it possible to assess the ability of novel compounds to inhibit TAU-induced cytotoxicity. […] Compounds were tested for their ability to hamper TAU-induced toxicity at different concentrations, ranging from low non-effective concentrations to high potent concentrations. Afterwards, the dose-dependent inhibition curve was used to calculate their EC50 (Table III).

[3] = Lipophilicity (logD) by Carrier mediated distribution system (CAMDIS); format: physicochemical
Method: Lipophilicity data were measured with the Carrier mediated distribution system (CAMDIS) as described in EP1705474A1.

Compound | microsomal CLint [1] [µL/min/mg] | microsomal CLint [2] [µL/min/mg] | EC50 (M17_3TAU(P301L) cells) [nM] | logD [3]
Clc1ccc(CCN2CCN(c3nc(Cc4ccc(Cl)cc4)ns3)CC2)cc1 [reference compound] | 43 | 48 |  | 
FC1(F)CCN(c2nsc(N3CCN(CCc4ccc(Cl)cc4)CC3)n2)CC1 [Example 2, 1-[2-(4-Chloro-phenyl)-ethyl]-4-[3-(4,4-difluoro-piperidin-1-yl)-[1,2,4]thiadiazol-5-yl]-piperazine] | 17 | 80 | 53.6 | 2.93
